We go through 7 compounds from patent US7282522B2, “Hydroxamic acid derivatives and the method for preparing thereof” (Amorepacific Corporation, priority 2003, dated 2007).

For one data set, the target named is T1, RARα (Homo sapiens, UniProt P10276).
T1 construct: expressed in transfected cells; host or cells: CV-1 cells (ATCC)
T1 sequence (P10276 1-462): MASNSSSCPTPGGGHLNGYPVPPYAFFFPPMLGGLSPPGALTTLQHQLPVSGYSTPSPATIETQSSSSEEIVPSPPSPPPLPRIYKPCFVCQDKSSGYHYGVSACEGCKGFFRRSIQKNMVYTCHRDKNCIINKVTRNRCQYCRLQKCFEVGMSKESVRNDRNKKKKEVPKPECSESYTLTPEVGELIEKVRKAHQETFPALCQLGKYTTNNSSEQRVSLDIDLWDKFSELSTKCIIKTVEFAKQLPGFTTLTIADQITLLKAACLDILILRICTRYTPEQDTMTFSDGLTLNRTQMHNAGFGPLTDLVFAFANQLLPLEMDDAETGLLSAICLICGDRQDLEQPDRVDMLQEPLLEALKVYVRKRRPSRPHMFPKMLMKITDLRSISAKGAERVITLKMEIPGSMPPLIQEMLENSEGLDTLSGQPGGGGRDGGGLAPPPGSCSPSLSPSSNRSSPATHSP
As to the kind of experiment: RARE-luciferase reporter assay in transfected CV-1 cells (affinity to retinoic acid receptor), RARα. The class given is cell-based. The conditions noted are these: treated 24 hours at final concentration 10^−4M, control group 1000. The text has this:
This example illustrates affinities of hydroxamic acid derivatives obtained in Examples 1 to 55 to retinoic acid receptor, in comparison with retinol and retinoic acid.
(§1) Receptor-expression plasmid, pECE-RARα and pECE-RARγ were engineered by the prior method (Mol. Cell. Biol. 1996, 16, 1138-1149). RARE-tk-Luc, i.e. RARE reporter was obtained by inserting RARE fragment from b-RARE-tk-CAT into pGL3 luciferase basic vector. CV-1 cells were obtained from ATCC (American Type Culture Collection).
CV-1 cells were seeded into 96-well microtiter plate at 5,000 cells per well and cultured in DMEM (Dulbecco's Modified Eagle's Media) supplemented with 2.5% fetal bovine serum. 24 Hours later, the cells were transfected with 10 ng of pECE-RARα, long of pECE-RARγ, 100 ng of reporter plasmid and 100 ng of β-galactosidase-expression vector, using LipofectaminPlus (GIBCO BRL, grand island, N.Y.). 24 Hours post-transfection, the cells were treated for 24 hours with hydroxamic acid derivatives of Examples 1˜55 or retinol at a final concentration of 10^−4M or with retinoic acid at a final concentration of 10^−5M, which is 10 times lower concentration than those of the former.
On the technique in general: Reporter assays use an easily measured gene product as a stand-in for the process of interest.

The target of another data set is T2, RARγ (Homo sapiens, UniProt P13631).
T2 construct: expressed in transfected cells; host or cells: CV-1 cells (ATCC)
T2 sequence (P13631 1-454): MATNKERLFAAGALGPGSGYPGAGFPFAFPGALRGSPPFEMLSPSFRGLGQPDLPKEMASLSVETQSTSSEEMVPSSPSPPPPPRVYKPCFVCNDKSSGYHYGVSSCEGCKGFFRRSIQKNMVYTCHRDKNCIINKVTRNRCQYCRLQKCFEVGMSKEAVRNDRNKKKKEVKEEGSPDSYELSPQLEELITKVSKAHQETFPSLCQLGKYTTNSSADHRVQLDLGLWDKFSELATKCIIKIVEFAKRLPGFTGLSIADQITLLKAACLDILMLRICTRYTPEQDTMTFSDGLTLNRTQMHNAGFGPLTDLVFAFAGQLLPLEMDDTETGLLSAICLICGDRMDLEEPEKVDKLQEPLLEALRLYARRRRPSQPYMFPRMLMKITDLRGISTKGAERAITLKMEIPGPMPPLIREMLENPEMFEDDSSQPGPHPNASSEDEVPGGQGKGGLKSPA
As to the kind of experiment: RARE-luciferase reporter assay in transfected CV-1 cells (affinity to retinoic acid receptor), RARγ. The class given is cell-based. The conditions noted are these: treated 24 hours at final concentration 10^−4M, control group 5000. The procedure:
as §1
CV-1 cells were seeded into 96-well microtiter plate at 5,000 cells per well and cultured in DMEM (Dulbecco's Modified Eagle's Media) supplemented with 2.5% fetal bovine serum. 24 Hours later, the cells were transfected with 10 ng of pECE-RARα, long of pECE-RARγ, 100 ng of reporter plasmid and 100 ng of β-galactosidase-expression vector, using LipofectaminPlus (GIBCO BRL, grand island, N.Y.).

The test system of another data set is procollagen type I. The data set is described as follows: Effect on collagen biosynthesis (procollagen type I ELISA) in human fibroblasts. The format is cell-based. The conditions noted are these: 10^−4M, 24 hours, serum-free medium, relative to control group = 100. The procedure: Human fibroblasts were seeded into 24-well plate at 1×10^5 cells per well and then cultured to 90% of growth.
For each supernatant, procollagen production was measured with procollagen type I ELISA kit.

For another data set, the system named is collagenase. The data set is described as follows: Inhibition of collagenase expression in human fibroblasts (ELISA kit). As to conditions: 10^−4M, 24 hours, serum-free medium, relative to control group = 100. The format is cell-based. Here is the method:
Human fibroblasts were seeded into 96-well microtiter plate at 5,000 cells per well and then cultured to 90% of growth in DMEM (Dulbecco's Modified Eagle's Media) supplemented with 2.5% fetal bovine serum. Then, the fibroblastes were cultured in serum-free DMEM for 24 hours and treated for 24 hours with 10^−4M of hydroxamic acid derivatives of Examples 1˜55, retinol or retinoic acid in serum-free medium, and then the culture fluid was collected.
(§2) For each culture fluid, collagenase production was measured with collagenase kit (commercialized by AmershamPharmacia Biotech). Firstly, the culture fluid was added to 96-well plate spread with primary collagenase antibody and then antigen-antibody reaction was performed in an incubator for 3 hours. Later, chromophore-conjugated secondary antibody was added to the 96-well plate and then reacted for 15 minutes. Then, color former was added thereto, to induce development at room temperature for 15 minutes. 1M of sulfuric acid was added to stop the reaction. […] The color density depends on the progress of the reaction. The absorbance of the yellow 96-well plate was measured at 405 nm using absorptiometer. Collagenase expression was calculated by the following equation 1. Herein, the absorbance of the culture fluid collected from the medium with no material treated was used as a control. Collagenase expression (%)=(Absorbance of test group with said material treated/Absorbance of control group with no material treated)×100 [Equation 1]
Collagenase expression was evaluated as a relative value, in consideration that the value of control group with no material treated is 100.
A general note: An ELISA detects its analyte on a solid surface through an enzyme-linked reagent.

The subject of another data set is elastase. As to the kind of experiment: Inhibition of elastase expression in human fibroblasts (ELISA kit). The format is cell-based. The conditions noted are these: 10^−4M, 24 hours, serum-free medium, relative to control group = 100. Here is the method:
as §2, with “elastase” for “collagenase”, “Elastase” for “Collagenase”, “2.” for “1.”, “2]” for “1]”
Elastase expression was evaluated as a relative value, in consideration that the value of control group with no material treated is 100.

In another data set the test system is white guinea pigs. The data set is described as follows: Phototoxicity test (UVA irradiation). As to conditions: for Evaluation (phototoxicity): 1%(w/v) solution, UVA 15 J/cm^2; for Phototoxic index: 50 μl of 1%(w/v) solution, UVA 320~380 nm 15 J/cm^2, observed 24, 48 and 72 hours.
Another data set has as its system rabbits. The data set is described as follows: Primary skin irritation test on animals (Draize P.I.I.). As to conditions: depilated back; for P.I.I. (Primary Irritation Index): 0.5 ml of 1% solution in 1,3-butylene glycol:ethanol 7:3, observed 24 or 72 hours later; for Evaluation (skin irritation): 1% solution, according to Draize's P.I.I.

Method for rabbits: Test was performed using fifty-six (56) of healthy male rabbits whose backs were depilated. […] 0.5ml of the test sample solution was applied to the right site of 2.5 cm×2.5 cm region on each of the depilated back. Left site with no sample treated was compared as a control. 24 hours or 72 hours later, skin abnormality such as erythema, crust and edema was observed.
Based on the score of skin response, skin irritation was evaluated according to Draize's P.I.I.(Primary Irritation Index) and compared with retinoic acid.
Method for white guinea pigs: Test was performed for twenty-five (25) of white guinea pigs whose backs were depilated and fixed. On both sides of the back, six(6) sites of 2 cm×2 cm, three(3) per side were sectioned. Right sites were compared as controls with no irradiation (UV non-irradiation sites) and left sites were irradiated (UV irradiation sites).
30 Minutes later, right sites were shielded with aluminum foil and UVA(320˜380 nm) was irradiated at a distance of about 10 cm therefrom using Waldmann to the final energy of 15 J/cm^2. After 24, 48 and 72 hours elapsed, skin response of guinea pig was observed. […] Evaluation was estimated for each elapsed time, i.e. 24, 48 and 72 hours and maximum scores were selected, to calculate irritation index by the following equation 3. Then, phototoxic index was calculated by the following equation 4. Irritation index=(ΣMaximum of erythema+ΣMaximum of edema)/Number of animals [Equation 3] Phototoxic index=(Irritation index of UV irradiation site)−(Irritation index of UV non-irradiation site) Equation 4]

`CCCc1ccc(C(=O)Nc2ccc(C(=O)NO)cc2)cc1` [Example 5, N-[4-(N-hydroxycarbamoyl)phenyl][4-propylphenyl]carboxyamide]: the “Luciferase activity RARα” value on RARα worked out at 18000. In addition, the “Luciferase activity RARγ” value on RARγ was 11000. In addition, the “Collagen biosynthesis (%)” value in the data set on procollagen type I is on record as 125%. Also, the “Collagenase expression (%)” value with collagenase came out at 79%. Further, in the data set on elastase, the “Elastase expression (%)” value was found to be 78%. Besides, in the data set with white guinea pigs, the “Evaluation (phototoxicity)” value is “No phototoxicity (lower value than 0.5, criterion value to be estimated as no phototoxicity)” and the Phototoxic index amounted to 0. In the data set on rabbits, the “P.I.I. (Primary Irritation Index)” value is 0.375 and the “Evaluation (skin irritation)” value was “No irritation”.

As to `CC(C)c1ccc(C(=O)Nc2ccc(C(=O)NO)cc2)cc1` [Example 6, N-[4-(N-hydroxycarbamoyl)phenyl][4-isopropylphenyl]carboxyamide], at RARα, the “Luciferase activity RARα” value worked out at 14500. Also, the “Luciferase activity RARγ” value on RARγ is reported as 12300. The “Collagen biosynthesis (%)” value with procollagen type I was 124%. In addition, the “Collagenase expression (%)” value in the data set with collagenase is recorded as 85%. In the data set with elastase, the “Elastase expression (%)” value worked out at 79%. In the data set on white guinea pigs, the “Evaluation (phototoxicity)” value is recorded as “No phototoxicity (lower value than 0.5, criterion value to be estimated as no phototoxicity)” and the Phototoxic index is recorded as 0. Moreover, in the data set with rabbits, the “P.I.I. (Primary Irritation Index)” value is given as 0.315 and the “Evaluation (skin irritation)” value is reported as “No irritation”.

With `CCCCc1ccc(C(=O)Nc2ccc(C(=O)NO)cc2)cc1` [Example 7, N-[4-(N-hydroxycarbamoyl)phenyl][4-butylphenyl]carboxyamide], the “Luciferase activity RARα” value on RARα is 12000. Moreover, the “Luciferase activity RARγ” value at RARγ is 11700. For the same compound, the “Collagen biosynthesis (%)” value with procollagen type I is on record as 109%. Moreover, the “Collagenase expression (%)” value in the data set with collagenase is recorded as 84%. For the same compound, the “Elastase expression (%)” value in the data set with elastase is on record as 77%. Also, in the data set with white guinea pigs, the “Evaluation (phototoxicity)” value is given as “No phototoxicity (lower value than 0.5, criterion value to be estimated as no phototoxicity)” and the Phototoxic index is listed as 0. In the data set with rabbits, the “P.I.I. (Primary Irritation Index)” value came out at 0.312 and the “Evaluation (skin irritation)” value is listed as “No irritation”.

For `CC(C)(C)c1ccc(C(=O)Nc2ccc(C(=O)NO)cc2)cc1` [Example 8, N-[4-(N-hydroxycarbamoyl)phenyl][4-tert-butylphenyl]carboxyamide], the “Luciferase activity RARα” value on RARα turned out to be 10002. The “Luciferase activity RARγ” value at RARγ is listed as 12000. Also, the “Collagen biosynthesis (%)” value with procollagen type I stood at 112%. Also, the “Collagenase expression (%)” value in the data set on collagenase was found to be 90%. Besides, the “Elastase expression (%)” value in the data set with elastase was 69%. Moreover, in the data set on white guinea pigs, the “Evaluation (phototoxicity)” value is “No phototoxicity (lower value than 0.5, criterion value to be estimated as no phototoxicity)” and the Phototoxic index stood at 0. Further, in the data set on rabbits, the “P.I.I. (Primary Irritation Index)” value is 0.330 and the “Evaluation (skin irritation)” value is recorded as “No irritation”.

`Cc1ccc(C(=O)Nc2ccc(C(=O)NO)cc2)cc1C` [Example 9, N-[4-(N-hydroxycarbamoyl)phenyl][3,4-dimethylphenyl]carboxyamide]: the “Luciferase activity RARα” value at RARα is reported as 12000. In addition, at RARγ, the “Luciferase activity RARγ” value was 12000. In addition, in the data set on procollagen type I, the “Collagen biosynthesis (%)” value was 120%. The “Collagenase expression (%)” value with collagenase worked out at 65%. The “Elastase expression (%)” value with elastase came out at 67%. In addition, in the data set with white guinea pigs, the “Evaluation (phototoxicity)” value is recorded as “No phototoxicity (lower value than 0.5, criterion value to be estimated as no phototoxicity)” and the Phototoxic index stood at 0. For the same compound, in the data set with rabbits, the “P.I.I. (Primary Irritation Index)” value is reported as 0.470 and the “Evaluation (skin irritation)” value is “No irritation”.

Turning to `CN(O)C(=O)c1ccc(NC(=O)C23CC4CC(CC(C4)C2)C3)cc1` [Example 11, adamantyl-N-[4-(N-hydroxy-N-methylcarbamoyl)phenyl]carboxyamide], the “Luciferase activity RARα” value at RARα was determined as 11600. Besides, the “Luciferase activity RARγ” value on RARγ is given as 10000. Moreover, the “Collagen biosynthesis (%)” value in the data set on procollagen type I came out at 110%. Moreover, the “Collagenase expression (%)” value in the data set with collagenase came out at 81%. Besides, in the data set on elastase, the “Elastase expression (%)” value was determined as 65%. Further, in the data set with white guinea pigs, the “Evaluation (phototoxicity)” value was “No phototoxicity (lower value than 0.5, criterion value to be estimated as no phototoxicity)” and the Phototoxic index is on record as 0. In the data set with rabbits, the “P.I.I. (Primary Irritation Index)” value is given as 0.375 and the “Evaluation (skin irritation)” value was “No irritation”.

In the case of `CN(C(=O)c1ccccc1)c1ccc(C(=O)NO)cc1` [Example 12, N-[4-(N-hydroxycarbamoyl)phenyl]-N-methyl-benzamide], the “Luciferase activity RARα” value on RARα worked out at 14500. For the same compound, the “Luciferase activity RARγ” value at RARγ is reported as 11300. For the same compound, the “Collagen biosynthesis (%)” value in the data set on procollagen type I worked out at 122%. For the same compound, in the data set on collagenase, the “Collagenase expression (%)” value was found to be 64%. For the same compound, the “Elastase expression (%)” value with elastase was 80%. For the same compound, in the data set on white guinea pigs, the “Evaluation (phototoxicity)” value is reported as “No phototoxicity (lower value than 0.5, criterion value to be estimated as no phototoxicity)” and the Phototoxic index turned out to be 0. In the data set on rabbits, the “P.I.I. (Primary Irritation Index)” value came out at 0.410 and the “Evaluation (skin irritation)” value is listed as “No irritation”.
